Measured values reported in paper PMC10202811 (Nature Medicine, 2023).
“And” between values parts separate entries of the source, which are not always exact repeats. Identical values can stand only once. “Also recorded” adds a separate entry of the source.

System: ALK-driven refractory or relapsed neuroblastoma
Assay: Progression-free survival and overall survival (Kaplan-Meier) by cohort
Type: in vivo, human
Details: individual patients (PID); for PFS status: source data of Figure 3; for PFS time, years since on study: time is censored where PFS status is No event; for OS time, years since on study: time is censored where vital status is Alive
Description: Supplement 41591_2023_2297_MOESM8_ESM.xlsx, sheet "Figure 3" | column: PFS status; PFS time, years since on study; Vital status; OS time, years since on study

C[C@H]1Oc2cc(cnc2N)-c2c(nn(C)c2C#N)CN(C)C(=O)c2ccc(F)cc21 [Lorlatinib, (10R)-7-amino-12-fluoro-2,10,16-trimethyl-15-oxo-10,15,16,17-tetrahydro-2H-8,4-(metheno)pyrazolo[4,3-h][2,5,11]-benzoxadiazacyclotetradecine-3-carbonitrile]
Vital status (cohort A1): Alive; also recorded: Deceased | PFS status (cohort A1): No event; also recorded: Relapsed/Deceased | PFS time, years since on study (cohort A1): 3.67 years and 0.13 years and 2.37 years and 0.10 years and 1.50 years and 0.08 years and 3.43 years and 0.31 years and 0.0657 years and 1.07 years and 1.17 years and 0.15 years and 0.30 years and 4.15 years and 0.28 years and 0.11 years and 0.16 years | OS time, years since on study (cohort A1): 3.67 years and 0.74 years and 3.43 years and 0.10 years and 1.50 years and 0.40 years and 0.36 years and 0.32 years and 0.39 years and 0.16 years and 2.28 years and 1.68 years and 0.20 years and 1.46 years and 1.11 years and 0.48 years and 0.56 years and 0.37 years and 4.15 years and 0.65 years and 0.63 years | Vital status (cohort A2): Alive; also recorded: Deceased | PFS status (cohort A2): No event; also recorded: Relapsed/Deceased | PFS time, years since on study (cohort A2): 4.39 years and 0.15 years and 0.82 years and 1.03 years and 0.80 years and 2.07 years and 0.89 years and 0.77 years and 0.32 years and 2.48 years and 2.24 years and 1.46 years and 1.34 years and 0.93 years and 0.73 years | OS time, years since on study (cohort A2): 4.39 years and 0.51 years and 1.86 years and 1.14 years and 1.78 years and 3.47 years and 0.89 years and 1.27 years and 1.10 years and 2.48 years and 2.24 years and 1.46 years and 1.34 years and 0.93 years and 0.73 years | Vital status (cohort B2): Deceased; also recorded: Alive | PFS status (cohort B2): Relapsed/Deceased; also recorded: No event | PFS time, years since on study (cohort B2): 0.50 years and 0.66 years and 0.13 years and 0.45 years and 1.28 years and 0.06 years and 0.44 years and 0.70 years and 0.16 years | OS time, years since on study (cohort B2): 1.16 years and 0.66 years and 0.41 years and 0.79 years and 1.28 years and 0.22 years and 0.44 years and 0.70 years and 0.54 years
